For data set [1], the system named is rats. Nature of the data set: Dose escalation in rats: mortality and anesthetic activity. Conditions: rats; for LD10: in DMSO, calculated from mortality curves. Here is the method:
(§1) Drugs solubilized in DMSO were administered to rats (5 rats per group). Anesthetic activity in vivo was determined as time to recovery of righting reflex. […] In order to adjust for the differences in molecular weight between the two compounds, umol/kg dose was used.

Test in data set [2]: as above
Conditions: rat, in vivo. Here is the method:
as §1

In data set [3] the test system is T1, GABAA Cl channel.
T1 construct: other: determined graphically, increasing concentr; other: 10^-4M, bovine hippocampus
The format is binding, bovine. Particulars: for Kd: read-out: binding constant (KD), inhibition of TBOB binding to GABAA receptor.

Data set [4] deals with GABAA Cl channel. The format is binding, bovine. Conditions: read-out: IC50 of binding to GABA Cl channel.
A short description of data set [5]: in vivo. Conditions: rat. From the text:
Time plasma concentration curve was processed using a two compartment PK model supported by WinNonlin.

For data set [6] the following is noted: dissolved in DMSO.
In data set [7] the test system is rats. The experiment in a line: Anesthetic activity in vivo, time to recovery of righting reflex. Further details: species or system rat. Conditions: for duration of anesthesia (time to recovery of righting reflex): tail vein injection in DMSO, 28 μmol/kg (5 mg/kg for 2,6-diisopropyl phenol); for toxicity compared with 2,6-diisopropyl phenol: equimolar dose. Here is the method: Drugs solubilized in DMSO were administered to rats by tail vein injection (N=5 rats per group). […] GABAA binding activity in vitro was performed as described in Example 27.

Data set [8] deals with GABAA agonist site. Conditions: 10^-4M, bovine hippocampus.
The subject of data set [9] is GABAA alpha-6 site. Particulars: 10^-4M, bovine hippocampus.
Data set [10] is described as follows: in vivo. Conditions: rat, plasma, intravenous, 5 mg/kg.
Data set [11] deals with GABAA alpha-1 site. Conditions: 10^-4M, bovine hippocampus.
The conditions of data set [12]: rat, intravenously via jugular vein cannula, in DMSO, blood.
Data set [13] relates to GABAA alpha 2 site. Particulars: 10^-4M, bovine hippocampus.
Data set [14] can be described thus: Total Antioxidant Status Assay (CalBiochem), inhibition of ABTS oxidation. The format is biochemical. Conditions: read-out: Antioxidant activity (IC50, 50% suppression of ABTS+ absorbance at 600 nm). From the text:
The assay used relies on the ability of antioxidants in the sample to inhibit the oxidation of ABTS (2,2'-Azino-di-[3-ethylbenzthiazoline sulphonate]) to ABTS+ by metmyoglobin (a peroxidase). The amount of ABTS+ produced was monitored at 600 nm. Under the reaction conditions used, the antioxidants in the sample suppress the absorbance at 600 nm to a degree which is proportional to their concentration and antioxidant activity.

Where [15] appears, read: 5 mg/kg intravenously in DMSO, plasma.
Where [16] appears, read: determined graphically, increasing concentrations.

Structures are written as SMILES. Like-named read-outs stand apart in the source and are kept apart here.

These results are taken from patent publication US8026275B2 (priority 2005, dated 2011).

Turning to `CC(C)c1cccc(C(C)C)c1O` [2,6-diisopropyl phenol], in data set [1], the “time asleep at LD10” value was 0.35 h and the LD10 is 28 µmol/kg. Also, the LD50 in data set [2] is 45.3 µmol/kg. Also, in data set [3], the “inhibition of TBOB binding to the chloride channel” value was “inhibited the binding of TBOB” and the equilibrium dissociation constant (Kd) is 5.74 µM. Further, the half-inhibitory concentration (IC50) in data set [4] came out at 96 µM. For the same compound, in data set [5] (setting [15]), the V1 is reported as 15 L/kg and the V2 is recorded as 58 L/kg. In data set [5] (in vivo, iv, 5 mg/kg), the exposure (AUC) was determined as 400 ng·h/mL, the Cmax came to 300 ng/mL, the Vd came to 73 L/kg and the clearance was 200 mL/min/kg. Moreover, the “time the rat was put to sleep” value in data set [6] is recorded as 20 min. Also, in data set [7], the “duration of anesthesia (time to recovery of righting reflex)” value (from here on “duration of anesthesia”) was 20 min. Further, the “inhibition of the agonist site” value in [8] is recorded as “No significant inhibition”. In addition, the “inhibition of the alpha 6 site” value in [9] is recorded as “No significant inhibition”. The same compound registered a concentration at 20 min in data set [10] of 750 nM. In [11], the “inhibition of the alpha 1 site” value is “No significant inhibition”. In addition, in data set [12], the AUC is 400 ng·h/mL, the CL came to 195 mL/min/kg, the Cmax is 300 ng/mL and the “Vc (volume of the central compartment)” value is listed as 15.0 L/kg. In addition, in data set [12], the “Vt (volume of the tissue compartment)” value came to 58.0 L/kg. Further, the “inhibition of the alpha 2 site” value in data set [13] is “No significant inhibition”.

In the case of `CC(C)c1cc(C(=O)c2ccc(F)cc2)cc(C(C)C)c1O` [Compound 1, (4-fluorophenyl)-(4-hydroxy-3,5-diisopropylphenyl)methanone], the IC50 in data set [14] was greater than 1000 µM.

As to `CC(C)c1cc(C(=O)c2ccc(C(F)(F)F)cc2)cc(C(C)C)c1O` [Compound 2], in [1], the “time asleep at LD10” value stood at 1.73 h and the LD10 was 29 µmol/kg. Moreover, in data set [1] (dose escalation), the “anesthetic activity compared with 2,6-diisopropyl phenol” value is on record as “better anesthetic activity than 2,6-diisopropyl phenol at all dose levels”. In addition, the 50% lethal dose (LD50) in [2] was determined as 62.1 µmol/kg. Besides, the Kd in data set [3] (setting [16]) came to 0.42 µM. In data set [7], the “toxicity compared with 2,6-diisopropyl phenol” value is recorded as “did not have toxicity above that of 2,6-diisopropyl phenol” and the “duration of anesthesia” value fell in the range of 75 to 92 min. Further, the IC50 in data set [14] is greater than 1000 µM. In data set [12], the exposure (AUC) worked out at 127000 ng·h/mL, the CL was 1.3 mL/min/kg, the Cmax was determined as 283000 ng/mL and the “Vc (volume of the central compartment)” value turned out to be 0.04 L/kg. In [12], the “Vss (volume distribution at steady state)” value worked out at 5.3 L/kg and the “Vt (volume of the tissue compartment)” value is 5.2 L/kg.

With `CC(C)c1cc(C(=O)c2ccc([N+](=O)[O-])cc2)cc(C(C)C)c1O` [Compound 3, (4-hydroxy-3,5-diisopropylphenyl)-(4-nitrophenyl)methanone], the half-inhibitory concentration (IC50) in data set [14] is greater than 1000 µM.

Take `CC(C)c1cc(C(=O)c2ccc(C(F)(F)F)c(F)c2)cc(C(C)C)c1O` [Compound 4, (3-fluoro-4-(trifluoromethyl)phenyl)-(4-hydroxy-3,5-diisopropylphenyl)methanone]: the IC50 in [14] is greater than 1000 µM.

Turning to `CC(C)c1cc(C(=O)c2cccc(C(F)(F)F)c2)cc(C(C)C)c1O` [Compound 5, (3-(trifluoromethyl)phenyl)-(4-hydroxy-3,5-diisopropylphenyl)methanone], the IC50 in data set [14] was greater than 1000 µM.

On to `CC(C)c1cc(C(=O)c2cc(F)cc(C(F)(F)F)c2)cc(C(C)C)c1O` [Compound 6, (3-fluoro-5-(trifluoromethyl)phenyl)-(4-hydroxy-3,5-diisopropylphenyl)methanone], for which, in [14], the IC50 is greater than 1000 µM.

As for `CC(C)c1cc(C(=O)c2ccc(C(C)(C)C)cc2)cc(C(C)C)c1O` [Compound 9, (4-tert-butylphenyl)-(4-hydroxy-3,5-diisopropylphenyl)methanone], the concentration for half-maximal inhibition (IC50) in [14] was greater than 1000 µM.

As to `CC(C)c1cc(C(=O)c2ccc(I)cc2)cc(C(C)C)c1O` [Compound 11, (4-hydroxy-3,5-diisopropylphenyl)-(4-iodophenyl)methanone], the Kd in data set [3] (setting [16]) came out at 0.36 µM. Also, in [7], the “toxicity compared with 2,6-diisopropyl phenol” value is given as “did not have toxicity above that of 2,6-diisopropyl phenol” and the “duration of anesthesia” value was found to be 86 min. For the same compound, the half-inhibitory concentration (IC50) in data set [14] was greater than 1000 µM.

`CC(C)c1cc(C(=O)c2ccc(C#N)cc2)cc(C(C)C)c1O` [Compound 13, (4-cyanophenyl)-(4-hydroxy-3,5-diisopropylphenyl)methanone]: the IC50 in data set [14] is greater than 1000 µM.

On to `CC(C)c1cc(C(=O)c2ccc(C(F)(F)F)nc2)cc(C(C)C)c1O` [Compound 14, (6-(trifluoromethyl)pyridin-3-yl)-(4-hydroxy-3,5-diisopropylphenyl)methanone], for which the IC50 in data set [14] was greater than 1000 µM.

For `CC(C)c1cc(C(O)c2ccc(C(F)(F)F)cc2)cc(C(C)C)c1O` (stereo not drawn) [Compound 20, 4-((4-(trifluoromethyl)phenyl)(hydroxy)methyl)-2,6-diisopropylphenol], the IC50 in data set [14] came to 28 µM.
